# In patent publication US9115143B2, “Substituted indole derivatives as gamma secretase modulators” (Janssen Pharmaceuticals, Inc., priority 2011, dated 2015):
# pIC50: −log10 of the molar value.
# Assays:
# [1] = test system: Aβtotal; assay: Screening for γ-secretase-modulating activity: Aβtotal in supernatant of SKNBE2 cells carrying hAPP 695 wild type (Alphalisa); format: cell-based, human; conditions: overnight incubation, Alphalisa on supernatant
# In short: (§1)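 Secreted Aβ42 (C-terminal/N-terminal antibody pair) and Aβtotal (N-terminal/mid-region pair) were quantified by AlphaLISA after overnight compound exposure of wild-type hAPP 695 SKNBE2 cells at 37 °C. Values expressed relative to compound-free maximum, with IC50 from nonlinear 4-parameter regression.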
# [2] = test system: Aβ42; assay: Screening for γ-secretase-modulating activity: Aβ42 in supernatant of SKNBE2 cells carrying hAPP 695 wild type (Alphalisa); format: cell-based, human; conditions: overnight incubation, Alphalisa on supernatant
# In short: as §1
# [3] = SKNBE2 human neuroblastoma cells carrying hAPP 695 wild type
# [4] = Homo sapiens, SKNBE2, SKNBE2 human neuroblastoma cells carrying hAPP 695 wild type
SMILES,"pIC50 [1, 3]","pIC50 [2, 3]",melting point,"pIC50 [1, 4]","pIC50 [2, 4]"
"COc1c(C#N)ccc2[nH]c(-c3cn4c(n3)C(c3ccccc3Cl)OCC4)cc12 (stereo not drawn) [Compound 51, 2-[8-(2-chlorophenyl)-5,6-dihydro-8H-imidazo[2,1-c][1,4]oxazin-2-yl]-4-methoxy-1H-indole-5-carbonitrile]",< 5.00,6.15,255.6 °C,–,–
"Cc1cn(-c2ccc3[nH]c(-c4nc5n(n4)CCOC5c4cc(F)c(F)c(C)c4C)cc3c2)cn1 (stereo not drawn) [Compound 116, 8-(4,5-difluoro-2,3-dimethylphenyl)-5,6-dihydro-2-[5-(4-methyl-1H-imidazol-1-yl)-1H-indol-2-yl]-8H-[1,2,4]triazolo[5,1-c][1,4]oxazine]",–,–,285.1 °C,< 5.00,7.48
"CCc1cc(F)ccc1C1OCCn2nc(-c3cc4cc(-n5cnc(C)c5)ccc4[nH]3)nc21 (stereo not drawn) [Compound 105, 8-(2-ethyl-4-fluorophenyl)-5,6-dihydro-2-[5-(4-methyl-1H-imidazol-1-yl)-1H-indol-2-yl]-8H-[1,2,4]triazolo[5,1-c][1,4]oxazine]",–,–,285.7 °C,< 5.00,7.47
"Cc1cc(F)ccc1C1CCCn2nc(-c3cc4nc(-c5cnn(C)c5)ccc4[nH]3)nc21 (stereo not drawn) [Compound 32, 8-(4-fluoro-2-methylphenyl)-5,6,7,8-tetrahydro-2-[5-(1-methyl-1H-pyrazol-4-yl)-1H-pyrrolo[3,2-b]pyridin-2-yl]-[1,2,4]triazolo[1,5-a]pyridine]",–,6.83,281.7 °C,< 5.00,–
"Cc1cc(F)ccc1C1CCCn2cc(-c3cc4cc(C#N)ncc4[nH]3)nc21 (stereo not drawn) [Compound 72, 2-[8-(4-fluoro-2-methylphenyl)-5,6,7,8-tetrahydroimidazo[1,2-a]pyridin-2-yl]-1H-pyrrolo[2,3-c]pyridine-5-carbonitrile]",–,–,255.5 °C,< 5.00,6.90
"COc1c(C#N)ccc2[nH]c(-c3nc4n(n3)CCOC4c3ccccc3Cl)cc12 (stereo not drawn) [Compound 137, 2-[8-(2-chlorophenyl)-5,6-dihydro-8H-[1,2,4]triazolo[5,1-c][1,4]oxazin-2-yl]-4-methoxy-1H-indole-5-carbonitrile]",< 5.00,7.31,197.5 °C,–,–
"N#Cc1ccc2cc(-c3nc4n(n3)CCCC4c3ccccc3C(F)(F)F)[nH]c2c1 (stereo not drawn) [Compound 61, 2-[5,6,7,8-tetrahydro-8-[2-(trifluoromethyl)phenyl][1,2,4]triazolo[1,5-a]pyridin-2-yl]-1H-indole-6-carbonitrile]",–,–,175.7 °C,< 5.00,5.40
"Cc1cc(-c2ccc3[nH]c(-c4cn5c(n4)C(c4ccc(F)cc4C)OCC5)cc3c2)ccn1 (stereo not drawn) [Compound 103, 8-(4-fluoro-2-methylphenyl)-5,6-dihydro-2-[5-(2-methyl-4-pyridinyl)-1H-indol-2-yl]-8H-imidazo[2,1-c][1,4]oxazine]",–,–,191.8 °C,< 5.00,7.59
"Cc1cn(-c2ccc3[nH]c(-c4nc5n(n4)CCOC5c4cccc(F)c4C)cc3c2)cn1 (stereo not drawn) [Compound 36, 8-(3-fluoro-2-methylphenyl)-5,6-dihydro-2-[5-(4-methyl-1H-imidazol-1-yl)-1H-indol-2-yl]-8H-[1,2,4]triazolo[5,1-c][1,4]oxazine]",–,–,261.3 °C,< 5.00,7.21
"Cc1cc(F)ccc1C1OCCn2nc(-c3cc4cc(C#N)ccc4[nH]3)nc21 (single isomer, unassigned) [Compound 97, 2-[8-(4-fluoro-2-methylphenyl)-5,6-dihydro-8H-[1,2,4]triazolo[5,1-c][1,4]oxazin-2-yl]-1H-indole-5-carbonitrile]",–,6.66,255 °C,< 5.00,–
"Cc1cc(F)ccc1C1OCCn2nc(-c3cc4nc(-c5cnn(C)c5)ccc4[nH]3)nc21 (stereo not drawn) [Compound 106, 8-(4-fluoro-2-methylphenyl)-5,6-dihydro-2-[5-(1-methyl-1H-pyrazol-4-yl)-1H-pyrrolo[3,2-b]pyridin-2-yl]-8H-[1,2,4]triazolo[5,1-c][1,4]oxazine]",–,–,263.8 °C,< 5.00,6.35
"Cc1cn(-c2ccc3[nH]c(-c4nc5n(n4)CCOC5c4ccc(F)cc4C)cc3c2)cn1 (single isomer, unassigned) [Compound 110, 8-(4-fluoro-2-methylphenyl)-5,6-dihydro-2-[5-(4-methyl-1H-imidazol-1-yl)-1H-indol-2-yl]-8H-[1,2,4]triazolo[5,1-c][1,4]oxazine]",< 5.00,7.44,278 °C,–,–
"COc1c(C#N)ccc2[nH]c(-c3cn4c(n3)C(c3ccc(F)cc3C)OCC4)cc12 (stereo not drawn) [Compound 48, 2-[8-(4-fluoro-2-methylphenyl)-5,6-dihydro-8H-imidazo[2,1-c][1,4]oxazin-2-yl]-4-methoxy-1H-indole-5-carbonitrile]",< 5.00,5.99,244.4 °C,–,–
"N#Cc1ccc2[nH]c(-c3nc4n(n3)CCCC4c3ccc(F)cc3C(F)(F)F)cc2c1 (stereo not drawn) [Compound 22, 2-[8-[4-fluoro-2-(trifluoromethyl)phenyl]-5,6,7,8-tetrahydro[1,2,4]triazolo[1,5-a]pyridin-2-yl]-1H-indole-5-carbonitrile]",–,–,265 °C,< 5.00,6.86
"N#Cc1ccc2[nH]c(-c3nc4n(n3)CCCC4c3ccccc3C(F)(F)F)nc2c1 (stereo not drawn) [Compound 38, 2-[5,6,7,8-tetrahydro-8-[2-(trifluoromethyl)phenyl][1,2,4]triazolo[1,5-a]pyridin-2-yl]-1H-benzimidazole-5-carbonitrile]",–,–,252.2 °C,< 5.00,6.06
"COc1c(C#N)ccc2[nH]c(-c3nc4n(n3)CCOC4c3c(C)cccc3F)cc12 (stereo not drawn) [Compound 142, 2-[8-(2-fluoro-6-methylphenyl)-5,6-dihydro-8H-[1,2,4]triazolo[5,1-c][1,4]oxazin-2-yl]-4-methoxy-1H-indole-5-carbonitrile]",< 5.00,5.55,244.8 °C,–,–
"COc1c(C#N)ccc2[nH]c(-c3cn4c(n3)C(c3ccccc3C3CC3)OCC4)cc12 (stereo not drawn) [Compound 170, 2-[8-(2-cyclopropylphenyl)-5,6-dihydro-8H-imidazo[2,1-c][1,4]oxazin-2-yl]-4-methoxy-1H-indole-5-carbonitrile]",–,7.96,269.8 °C,< 5.00,–

# Results, then the molecule that gave them:
"pIC50 [1, 3]","pIC50 [2, 3]",melting point,"pIC50 [1, 4]","pIC50 [2, 4]",SMILES
–,–,264.9 °C,< 5.00,6.40,"Cc1ccccc1C1CCCn2nc(-c3cc4nc(C#N)ccc4[nH]3)nc21 (stereo not drawn) [Compound 25, 2-[5,6,7,8-tetrahydro-8-(2-methylphenyl)[1,2,4]triazolo[1,5-a]pyridin-2-yl]-1H-pyrrolo[3,2-b]pyridine-5-carbonitrile]"
–,–,251 °C,< 5.00,6.30,"COc1ccccc1C1CCCn2cc(-c3cc4cc(C#N)ccc4[nH]3)nc21 (stereo not drawn) [Compound 67, 2-[5,6,7,8-tetrahydro-8-(2-methoxyphenyl)imidazo[1,2-a]pyridin-2-yl]-1H-indole-5-carbonitrile]"
< 5.00,6.17,277.1 °C,–,–,"COc1c(C#N)ccc2[nH]c(-c3cn4c(n3)C(c3cc(F)ccc3C)OCC4)cc12 (stereo not drawn) [Compound 159, 2-[8-(5-fluoro-2-methylphenyl)-5,6-dihydro-8H-imidazo[2,1-c][1,4]oxazin-2-yl]-4-methoxy-1H-indole-5-carbonitrile]"
–,–,223.8 °C,< 5.00,7.12,"Cc1ccccc1C1CCCn2nc(-c3cc4cc(-c5cnn(C)c5)ccc4[nH]3)nc21 (stereo not drawn) [Compound 31, 5,6,7,8-tetrahydro-8-(2-methylphenyl)-2-[5-(1-methyl-1H-pyrazol-4-yl)-1H-indol-2-yl]-[1,2,4]triazolo[1,5-a]pyridine]"
–,–,208.6 °C,< 5.00,6.61,"N#Cc1ccc2[nH]c(-c3nc4n(n3)CCCC4c3ccccc3Cl)cc2c1 (stereo not drawn) [Compound 62, 2-[8-(2-chlorophenyl)-5,6,7,8-tetrahydro[1,2,4]triazolo[1,5-a]pyridin-2-yl]-1H-indole-5-carbonitrile]"
–,–,267.2 °C,< 5.00,7.31,"Cc1cc(-c2ccc3[nH]c(-c4nc5n(n4)CCCC5c4ccc(F)cc4C)cc3n2)ccn1 (stereo not drawn) [Compound 33, 8-(4-fluoro-2-methylphenyl)-5,6,7,8-tetrahydro-2-[5-(2-methyl-4-pyridinyl)-1H-pyrrolo[3,2-b]pyridin-2-yl]-[1,2,4]triazolo[1,5-a]pyridine]"
–,–,272.3 °C,< 5.00,6.48,"N#Cc1ccc2[nH]c(-c3nc4n(n3)CCCC4c3ccccc3C(F)(F)F)cc2n1 (stereo not drawn) [Compound 26, 2-[5,6,7,8-tetrahydro-8-[2-(trifluoromethyl)phenyl][1,2,4]triazolo[1,5-a]pyridin-2-yl]-1H-pyrrolo[3,2-b]pyridine-5-carbonitrile]"
< 5.00,7.55,244.4 °C,–,–,"COc1c(C#N)ccc2[nH]c(-c3nc4n(n3)CCOC4c3c(C)cccc3F)cc12 (stereo not drawn) [Compound 141, 2-[8-(2-fluoro-6-methylphenyl)-5,6-dihydro-8H-[1,2,4]triazolo[5,1-c][1,4]oxazin-2-yl]-4-methoxy-1H-indole-5-carbonitrile]"
< 5.00,6.12,270.8 °C,–,–,"COc1c(C#N)ccc2[nH]c(-c3cn4c(n3)C(c3ccccc3C3CC3)OCC4)cc12 (stereo not drawn) [Compound 169, 2-[8-(2-cyclopropylphenyl)-5,6-dihydro-8H-imidazo[2,1-c][1,4]oxazin-2-yl]-4-methoxy-1H-indole-5-carbonitrile]"
